Structures are written as SMILES.

The first experiment has as its system SARS-CoV-2 strain USA-WA1/2020. In words: microbe, parasite or virus in culture. It is filed as cell-based. The settings on record: Severe acute respiratory syndrome coronavirus 2, HeLa-ACE2, 24 h, HeLa-ACE2 cells, SARS-CoV-2 infection, 24 h; cells given as a bound; read-out: EC50, uM (Hela).
As usually defined, the EC50 is the concentration that produces a half-maximal response. For the compound `CC(C)C[C@H](NC(=O)C(=O)Nc1ccccc1F)C(=O)N[C@@H](C[C@@H]1CCNC1=O)C(=O)COC(C(F)F)C(F)F` [Compound 175, N1-(2-fluorophenyl)-N2-((S)-4-methyl-1-oxo-1-(((S)-3-oxo-1-((S)-2-oxopyrrolidin-3-yl)-4-((1,1,3,3-tetrafluoropropan-2-yl)oxy)butan-2-yl)amino)pentan-2-yl)oxalamide], the EC50 was over 1 µM.

The same experiment, now with this note: Severe acute respiratory syndrome coronavirus 2, HeLa-ACE2, 24 h, HeLa-ACE2 cells, SARS-CoV-2 infection, 24 h; class symbols; read-out: EC50, uM (Hela).
With `CC(C)(C)[C@H](O)C(=O)N1C[C@H]2[C@@H]([C@H]1C(=O)N[C@@H](C[C@@H]1CCNC1=O)C(=O)COC(F)(F)F)C2(C)C` [Compound 345, (1R,2S,5S)-3-((S)-2-hydroxy-3,3-dimethylbutanoyl)-6,6-dimethyl-N-((S)-3-oxo-1-((S)-2-oxopyrrolidin-3-yl)-4-(trifluoromethoxy)butan-2-yl)-3-azabicyclo-[3.1.0]hexane-2-carboxamide], the EC50 was under 0.05 µM. In the case of `CC(C)C[C@H](NC(=O)c1c[nH]c2cccnc12)C(=O)N[C@@H](C[C@@H]1CCNC1=O)C(=O)COC(F)(F)F` [Compound 263, N-((S)-4-methyl-1-oxo-1-(((S)-3-oxo-1-((S)-2-oxopyrrolidin-3-yl)-4-(trifluoromethoxy)butan-2-yl)amino)pentan-2-yl)-1H-pyrrolo[3,2-b]pyridine-3-carboxamide], the EC50 lay in the range of 0.2 to 0.5 µM. The same measure, in the same setting: for `CC(C)C[C@H](NC(=O)c1ccc2ccccc2n1)C(=O)N[C@@H](C[C@@H]1CCNC1=O)C(=O)COc1c(F)c(F)cc(F)c1F` [Compound 20, N-((S)-4-methyl-1-oxo-1-(((S)-3-oxo-1-((S)-2-oxopyrrolidin-3-yl)-4-(2,3,5,6-tetrafluorophenoxy)butan-2-yl)amino)pentan-2-yl)quinoline-2-carboxamide] the value was 0.2 to 0.5 µM; for `O=C1NCC[C@H]1C[C@H](NC(=O)[C@@H]1CC2(CC2)CN1C(=O)[C@@H](O)C(F)(F)F)C(=O)COC(F)(F)F` [Compound 387, (S)-N-((S)-3-oxo-1-((S)-2-oxopyrrolidin-3-yl)-4-(trifluoromethoxy)butan-2-yl)-5-((R)-3,3,3-trifluoro-2-hydroxypropanoyl)-5-azaspiro[2.4]-heptane-6-carboxamide], 0.05 to 0.2 µM; for `O=C(Nc1ccccc1F)C(=O)N[C@@H](CC1CCNC1=O)C(=O)N[C@@H](C[C@@H]1CCNC1=O)C(=O)COC(F)(F)F` (stereo partly drawn) [Compound 218, N1-(2-fluorophenyl)-N2-((2S)-1-oxo-1-(((S)-3-oxo-1-((S)-2-oxopyrrolidin-3-yl)-4-(trifluoromethoxy)butan-2-yl)amino)-3-(2-oxopyrrolidin-3-yl)propan-2-yl)oxalamide], 0.5 to 1 µM. As to `CC(C)C[C@H](NC(=O)C(=O)NC(C)(C)C)C(=O)N[C@@H](C[C@@H]1CCNC1=O)C(=O)COC(F)(F)F` [Compound 180, N1-(tert-butyl)-N2-((S)-4-methyl-1-oxo-1-(((S)-3-oxo-1-((S)-2-oxopyrrolidin-3-yl)-4-(trifluoromethoxy)butan-2-yl)amino)pentan-2-yl)oxalamide], the EC50 is under 0.05 µM. On the same count and under the same terms, the result for `Cc1cc(C(=O)N[C@@H](CC(C)C)C(=O)N[C@@H](C[C@@H]2CCNC2=O)C(=O)COc2c(F)c(F)cc(F)c2F)no1` [Compound 114, 5-methyl-N-((S)-4-methyl-1-oxo-1-(((S)-3-oxo-1-((S)-2-oxopyrrolidin-3-yl)-4-(2,3,5,6-tetrafluorophenoxy)butan-2-yl)amino)pentan-2-yl)isoxazole-3-carboxamide] reads 0.5 to 1 µM; that for `CCc1cccc(CC)c1NC(=O)C(=O)N[C@@H](CC(C)C)C(=O)N[C@@H](C[C@@H]1CCNC1=O)C(=O)COC(F)(F)F` [Compound 167, N1-(2,6-diethylphenyl)-N2-((S)-4-methyl-1-oxo-1-(((S)-3-oxo-1-((S)-2-oxopyrrolidin-3-yl)-4-(trifluoromethoxy)butan-2-yl)amino)pentan-2-yl)oxalamide], under 0.05 µM. Same read-out and setting: the result for `CC(C)C[C@H](NC(=O)c1csc(C(F)(F)F)n1)C(=O)N[C@@H](CC1CCNC1=O)C(=O)COC(F)(F)F` (stereo partly drawn) [Compound 277, N-((2S)-4-methyl-1-oxo-1-(((2S)-3-oxo-1-(2-oxopyrrolidin-3-yl)-4-(trifluoromethoxy)butan-2-yl)amino)pentan-2-yl)-2-(trifluoromethyl)-thiazole-4-carboxamide] reads under 0.05 µM.

Still in this experiment, the particulars now being: Severe acute respiratory syndrome coronavirus 2, HeLa-ACE2, 24 h, HeLa-ACE2 cells, SARS-CoV-2 infection, 24 h; given as bound; read-out: EC50, uM (Hela).
Regarding `CC1(NC(=O)C(=O)N2C[C@@H]3CCC[C@@H]3[C@H]2C(=O)N[C@H](C[C@@H]2CCNC2=O)C(=O)COC(F)(F)F)CC1` [Compound 495, (1S,3aR,6aS)-2-(2-((1-methylcyclopropyl)-amino)-2-oxoacetyl)-N-((R)-3-oxo-1-((S)-2-oxopyrrolidin-3-yl)-4-(trifluoromethoxy)butan-2-yl)octahydrocyclo-penta[c]pyrrole-1-carboxamide], the EC50 is over 1 µM. Consider `O=C1NCC[C@H]1C[C@H](NC(=O)[C@@H]1[C@H]2CCC[C@H]2CN1C(=O)c1noc2c1CNCC2)C(=O)COC(F)(F)F` [Compound 556, (1S,3aR,6aS)-N-((S)-3-oxo-1-((S)-2-oxopyrrolidin-3-yl)-4-(trifluoromethoxy)butan-2-yl)-2-(4,5,6,7-tetrahydroisoxazolo[4,5-c]pyridine-3-carbonyl)octahydro-cyclopenta[c]pyrrole-1-carboxamide], for which the half-maximal effective concentration (EC50) was over 1 µM.

Still in this experiment, the particulars now being: Severe acute respiratory syndrome coronavirus 2, HeLa-ACE2, 24 h, HeLa-ACE2 cells, SARS-CoV-2 infection, 24 h; read-out: EC50, uM (Hela).
As to `CC(C)C[C@H](NC(=O)C(=O)Nc1ccccc1F)C(=O)N[C@@H](C[C@@H]1CCNC1=O)C(=O)COc1ccnc(C(F)(F)F)n1` [Compound 788, N^1-(2-fluorophenyl)-N^2—((S)-4-methyl-1-oxo-1-(((S)-3-oxo-1-((S)-2-oxopyrrolidin-3-yl)-4-((2-(trifluoromethyl)pyrimidin-4-yl)oxy)butan-2-yl)amino)pentan-2-yl)oxalamide], the half-maximal effective concentration (EC50) lay within 0.2 to 0.5 µM.

In the case of `CC(C)(C)NC(=O)C(=O)N1C[C@H]2[C@@H]([C@H]1C(=O)N[C@@H](C[C@@H]1CCNC1=O)C(=O)COC(F)(F)F)C21CC1` [Compound 553, (1R,2S,5S)-3-(2-(tert-butylamino)-2-oxoacetyl)-N-((S)-3-oxo-1-((S)-2-oxopyrrolidin-3-yl)-4-(trifluoromethoxy)butan-2-yl)-3-azaspiro-[bicyclo[3.1.0]hexane-6,1'-cyclopropane]-2-carboxamide], the half-maximal effective concentration (EC50) was 0.05 to 0.2 µM. On to `O=C(NC1CC1)C(=O)N1CC2(CC2)C[C@H]1C(=O)N[C@@H](C[C@@H]1CCNC1=O)C(=O)COC(F)(F)F` [Compound 746, (S)-5-(2-(cyclopropylamino)-2-oxoacetyl)-N-((S)-3-oxo-1-((S)-2-oxopyrrolidin-3-yl)-4-(trifluoromethoxy)butan-2-yl)-5-azaspiro[2.4]heptane-6-carboxamide], for which the EC50 lay within 0.05 to 0.2 µM. Same read-out and setting: the result for `COc1cccc([C@@H](O)C(=O)N2C[C@H]3[C@@H]([C@H]2C(=O)N[C@@H](C[C@@H]2CCNC2=O)C(=O)COC(F)(F)F)C3(C)C)c1F` [Compound 741, (1R,2S,5S)-3-((R)-2-(2-fluoro-3-methoxyphenyl)-2-hydroxyacetyl)-6,6-dimethyl-N-((S)-3-oxo-1-((S)-2-oxopyrrolidin-3-yl)-4-(trifluoromethoxy)butan-2-yl)-3-azabicyclo[3.1.0]hexane-2-carboxamide] reads under 0.05 µM; that for `CC(C)(C(=O)N1CC2(CC2)C[C@H]1C(=O)N[C@@H](C[C@@H]1CCNC1=O)C(=O)COC(F)(F)F)c1cccc(C(F)(F)F)c1` [Compound 456, (S)-5-(2-methyl-2-(3-(trifluoromethyl)-phenyl)propanoyl)-N-((S)-3-oxo-1-((S)-2-oxopyrrolidin-3-yl)-4-(trifluoromethoxy)butan-2-yl)-5-azaspiro[2.4]heptane-6-carboxamide], under 0.05 µM; that for `CC(C)(C)C[C@H](NC(=O)c1cc(C(F)F)on1)C(=O)N[C@@H](C[C@@H]1CCNC1=O)C(=O)COC(F)(F)F` [Compound 532, 5-(difluoromethyl)-N-((S)-4,4-dimethyl-1-oxo-1-(((S)-3-oxo-1-((S)-2-oxopyrrolidin-3-yl)-4-(trifluoromethoxy)butan-2-yl)amino)pentan-2-yl)isoxazole-3-carboxamide], under 0.05 µM.

In the case of `[2H]C([2H])([2H])C([2H])([2H])CCCC(=O)N1CC2(CC2)C[C@H]1C(=O)N[C@@H](C[C@@H]1CCNC1=O)C(=O)COC(F)(F)F` [Compound 755, (S)-5-(hexanoyl-5,5,6,6,6-d5)-N-((S)-3-oxo-1-((S)-2-oxopyrrolidin-3-yl)-4-(trifluoromethoxy)butan-2-yl)-5-azaspiro[2.4]heptane-6-carboxamide], the EC50 is under 0.05 µM. Still for that read-out and setting: the result for `CC(C)(C)NC(=O)C(=O)N1CCC[C@@]1(CC1CC1)C(=O)N[C@@H](C[C@@H]1CCNC1=O)C(=O)COC(F)(F)F` [Compound 567, (R)-1-(2-(tert-butylamino)-2-oxoacetyl)-2-(cyclopro-pylmethyl)-N-((S)-3-oxo-1-((S)-2-oxopyrrolidin-3-yl)-4-(trifluoromethoxy)butan-2-yl)pyrrolidine-2-carboxamide] reads 0.2 to 0.5 µM. The same measure, in the same setting: for `Cc1ccccc1NC(=O)C(=O)NC(CC1CCOCC1)C(=O)N[C@@H](C[C@@H]1CCNC1=O)C(=O)COC(F)(F)F` (stereo partly drawn) [Compound 524, N1-(1-oxo-1-(((S)-3-oxo-1-((S)-2-oxopyrrolidin-3-yl)-4-(trifluoromethoxy)butan-2-yl)amino)-3-(tetrahydro-2H-pyran-4-yl)propan-2-yl)-N2-(o-tolyl)oxalamide] the value was under 0.05 µM. Same read-out and setting: for `CC(C)(C)c1cccc(C(C)(C)C(=O)N2CC3(CC3)C[C@H]2C(=O)N[C@@H](C[C@@H]2CCNC2=O)C(=O)COC(F)(F)F)c1` [Compound 455, (S)-5-(2-(3-(tert-butyl)phenyl)-2-methylpropanoyl)-N-((S)-3-oxo-1-((S)-2-oxopyrrolidin-3-yl)-4-(trifluoromethoxy)butan-2-yl)-5-azaspiro[2.4]heptane-6-carboxamide] the value was 0.05 to 0.2 µM.

(Values after patent US11708348B2, “Protease inhibitors for treatment of coronavirus infections” (The Scripps Research Institute, priority 2021, dated 2023).)
